According to the NIST ThermoML archive (doi:10.1016/j.fluid.2008.03.012):

Test: excess molar enthalpy (molar enthalpy of mixing); xn = mol fraction of the nth substance listed
Conditions: Liquid, Flow calorimetry

CCOC(=O)CC(C)=O [ethyl 3-oxobutanoate] + CC(C)O
excess molar enthalpy [kJ/mol]
Conditions	298.15 K	313.15 K	328.15 K
100 kPa, x1 = 0.0997	0.988	1.11	1.18
100 kPa, x1 = 0.1998	1.54	1.76	1.9
100 kPa, x1 = 0.2999	1.87	2.17	2.33
100 kPa, x1 = 0.3499	1.97	2.29	2.45
100 kPa, x1 = 0.4003	2.04	2.36	2.53
100 kPa, x1 = 0.4496	2.08	2.4	2.56
100 kPa, x1 = 0.5003	2.08	2.4	2.55
100 kPa, x1 = 0.5494	2.05	2.35	2.5
100 kPa, x1 = 0.5995	1.99	2.27	2.4
100 kPa, x1 = 0.6505	1.89	2.15	2.25
100 kPa, x1 = 0.7008	1.76	1.98	2.06
100 kPa, x1 = 0.7999	1.37	1.5	1.56
100 kPa, x1 = 0.9006	0.774	0.83	0.85
10000 kPa, x1 = 0.0994	0.968	1.09	1.15
10000 kPa, x1 = 0.1993	1.5	1.71	1.87
10000 kPa, x1 = 0.2992	1.82	2.09	2.29
10000 kPa, x1 = 0.3491	1.92	2.21	2.42
10000 kPa, x1 = 0.3995	1.99	2.28	2.5
10000 kPa, x1 = 0.4488	2.03	2.31	2.53
10000 kPa, x1 = 0.4995	2.04	2.31	2.52
10000 kPa, x1 = 0.5486	2.02	2.26	2.47
10000 kPa, x1 = 0.5987	1.96	2.18	2.37
10000 kPa, x1 = 0.6497	1.87	2.06	2.23
10000 kPa, x1 = 0.7001	1.74	1.89	2.04
10000 kPa, x1 = 0.7994	1.36	1.43	1.54
10000 kPa, x1 = 0.9003	0.77	0.781	0.834

CCOC(=O)CC(C)=O [ethyl 3-oxobutanoate] + CCCO
excess molar enthalpy [kJ/mol]
Conditions	298.15 K	313.15 K	328.15 K
100 kPa, x1 = 0.1001	0.869	0.991	1.07
100 kPa, x1 = 0.1998	1.36	1.58	1.73
100 kPa, x1 = 0.3003	1.66	1.94	2.13
100 kPa, x1 = 0.3502	1.76	2.06	2.25
100 kPa, x1 = 0.3994	1.82	2.14	2.33
100 kPa, x1 = 0.4501	1.87	2.18	2.36
100 kPa, x1 = 0.4997	1.88	2.19	2.36
100 kPa, x1 = 0.5505	1.86	2.16	2.31
100 kPa, x1 = 0.5997	1.82	2.1	2.23
100 kPa, x1 = 0.6497	1.74	1.99	2.11
100 kPa, x1 = 0.7007	1.63	1.84	1.93
100 kPa, x1 = 0.7996	1.29	1.42	1.47
100 kPa, x1 = 0.9004	0.732	0.782	0.806
10000 kPa, x1 = 0.1003	0.854	0.957	1.06
10000 kPa, x1 = 0.2001	1.33	1.52	1.7
10000 kPa, x1 = 0.3007	1.63	1.88	2.1
10000 kPa, x1 = 0.3506	1.72	1.98	2.23
10000 kPa, x1 = 0.3998	1.79	2.06	2.31
10000 kPa, x1 = 0.4505	1.83	2.1	2.35
10000 kPa, x1 = 0.5001	1.84	2.11	2.35
10000 kPa, x1 = 0.5509	1.82	2.09	2.31
10000 kPa, x1 = 0.6	1.78	2.02	2.22
10000 kPa, x1 = 0.6501	1.7	1.91	2.1
10000 kPa, x1 = 0.701	1.59	1.76	1.93
10000 kPa, x1 = 0.7999	1.26	1.35	1.46
10000 kPa, x1 = 0.9005	0.71	0.747	0.797

CCOC(=O)CC(C)=O [ethyl 3-oxobutanoate] + CCO
excess molar enthalpy [kJ/mol]
Conditions	298.15 K	313.15 K	328.15 K
100 kPa, x1 = 0.0999	0.744	0.847	0.907
100 kPa, x1 = 0.1997	1.2	1.36	1.5
100 kPa, x1 = 0.2994	1.49	1.68	1.86
100 kPa, x1 = 0.3495	1.59	1.8	1.98
100 kPa, x1 = 0.3999	1.66	1.88	2.06
100 kPa, x1 = 0.4501	1.7	1.91	2.1
100 kPa, x1 = 0.4995	1.71	1.92	2.1
100 kPa, x1 = 0.5492	1.69	1.9	2.07
100 kPa, x1 = 0.6008	1.65	1.84	1.99
100 kPa, x1 = 0.6501	1.58	1.75	1.88
100 kPa, x1 = 0.7008	1.48	1.62	1.74
100 kPa, x1 = 0.8006	1.15	1.24	1.31
100 kPa, x1 = 0.9002	0.657	0.703	0.712
10000 kPa, x1 = 0.0998	0.725	0.845	0.898
10000 kPa, x1 = 0.1995	1.17	1.36	1.47
10000 kPa, x1 = 0.2992	1.46	1.68	1.82
10000 kPa, x1 = 0.3493	1.55	1.8	1.94
10000 kPa, x1 = 0.3996	1.62	1.87	2.01
10000 kPa, x1 = 0.4498	1.66	1.9	2.05
10000 kPa, x1 = 0.4992	1.67	1.92	2.05
10000 kPa, x1 = 0.5489	1.66	1.89	2.01
10000 kPa, x1 = 0.6005	1.61	1.83	1.94
10000 kPa, x1 = 0.6499	1.54	1.75	1.83
10000 kPa, x1 = 0.7005	1.44	1.62	1.69
10000 kPa, x1 = 0.8004	1.12	1.24	1.26
10000 kPa, x1 = 0.9001	0.629	0.699	0.701

CCOC(=O)CC(C)=O [ethyl 3-oxobutanoate] + CO
excess molar enthalpy [kJ/mol]
Conditions	298.15 K	313.15 K	328.15 K
100 kPa, x1 = 0.0998	0.503	0.563	0.612
100 kPa, x1 = 0.2002	0.845	0.949	1.02
100 kPa, x1 = 0.2994	1.07	1.19	1.29
100 kPa, x1 = 0.3505	1.15	1.28	1.39
100 kPa, x1 = 0.3995	1.2	1.33	1.45
100 kPa, x1 = 0.4495	1.23	1.36	1.48
100 kPa, x1 = 0.4998	1.25	1.38	1.49
100 kPa, x1 = 0.5495	1.24	1.36	1.47
100 kPa, x1 = 0.5997	1.21	1.33	1.43
100 kPa, x1 = 0.65	1.15	1.27	1.35
100 kPa, x1 = 0.6995	1.07	1.17	1.25
100 kPa, x1 = 0.7994	0.832	0.884	0.936
100 kPa, x1 = 0.8982	0.465	0.479	0.502
10000 kPa, x1 = 0.0996	0.484	0.555	0.606
10000 kPa, x1 = 0.1999	0.822	0.941	1.02
10000 kPa, x1 = 0.299	1.04	1.18	1.29
10000 kPa, x1 = 0.35	1.11	1.27	1.38
10000 kPa, x1 = 0.399	1.16	1.33	1.45
10000 kPa, x1 = 0.449	1.18	1.36	1.48
10000 kPa, x1 = 0.4993	1.2	1.37	1.49
10000 kPa, x1 = 0.5489	1.18	1.36	1.47
10000 kPa, x1 = 0.5992	1.15	1.32	1.42
10000 kPa, x1 = 0.6495	1.09	1.26	1.35
10000 kPa, x1 = 0.699	1.01	1.14	1.24
10000 kPa, x1 = 0.799	0.76	0.875	0.931
10000 kPa, x1 = 0.898	0.412	0.472	0.495
